Patent US20150299143A1, “SUBSTITUTED TRIAZOLE AND IMIDAZOLE COMPOUNDS” (HOFFMANN-LA ROCHE INC., priority 2012, published 2015)

Tests used:
[1] = target: T1, β 1i (caspase-like) (Homo sapiens, UniProt P28065+P40306); assay: Cell-Based Proteasome subunit activity/selectivity assay, β1i, substrate (PAL)2Rh110; details: Ramos cells; substrate (PAL)2Rh110 (β1i); highest concentration tested 20 μM; read-out: Ic50:ramos:rh110-(pal)2
T1 construct: protease activity associated with the proteasome complex in cultured cells; endogenous in cells; host or cells: Ramos cells
Description: (§1) Cell-Based Proteasome Activity/Selectivity Assay
(§2) The Cell-Based Proteasome subunit activity/selectivity assay was a panel of 5 fluorogenic assays that independently measured the activity of β5c or β 5i (chymotrypsin-like activity), β 2c/2i (trypsin-like), and β 1c or β 1i (caspase-like) protease activity associated with the proteasome complex in cultured cells. Specifically, the following substrates were used for respective subunit activities: β 1i (PAL)2Rh110, β 1c: (LLE)2 Rh110, β 2c/2i: (KQL)2Rh110, β 5c: (WLA)2Rh110, β 5i: (ANW)2Rh110. The following procedure was followed:
(§3) Added 0.5 μl of 100× 4-fold serial diluted test compounds or DMSO to each well. Highest concentration of compound tested was 20 μM, thus compound serial dilution started from […]. Incubated for 30 minutes at 37° C. Then equilibrated at room temperature for 15 minutes. […] Shaked for one minute @ 700 rpm. Incubated for 120 min at room temperature. Then read the plates with an Envision multilabel plate reader (PerkinElmer) with 500 nm excitation/519 nm emission.

[2] = target: T2, β5c (chymotrypsin-like activity) (Homo sapiens, UniProt P20618+P28074); assay: Cell-Based Proteasome subunit activity/selectivity assay, β5c, substrate (WLA)2Rh110; details: Ramos cells; substrate (WLA)2Rh110 (β5c); highest concentration tested 20 μM; read-out: Ic50:ramos:rh110-(wla)2
T2 construct: protease activity associated with the proteasome complex in cultured cells; endogenous in cells; host or cells: Ramos cells
Description: as §1, §2, §3

[3] = target: T3, β 1c (caspase-like) (Homo sapiens, UniProt P28072+Q99436); assay: Cell-Based Proteasome subunit activity/selectivity assay, β1c, substrate (LLE)2Rh110; details: Ramos cells; substrate (LLE)2Rh110 (β1c); highest concentration tested 20 μM; read-out: Ic50:ramos:rh110-(lle)2
T3 construct: protease activity associated with the proteasome complex in cultured cells; endogenous in cells; host or cells: Ramos cells
Description: as §1, §2, §3

[4] = target: T4, β 5i (chymotrypsin-like activity) (Homo sapiens, UniProt P20618+P28062); assay: Cell-Based Proteasome subunit activity/selectivity assay, β5i, substrate (ANW)2Rh110; details: Ramos cells; substrate (ANW)2Rh110 (β5i); highest concentration tested 20 μM; read-out: Ic50:ramos:ac-(anw)2-r110
T4 construct: protease activity associated with the proteasome complex in cultured cells; endogenous in cells; host or cells: Ramos cells
Description: as §1, §2, §3

[5] = tested on: β 2c/2i (trypsin-like); assay: Cell-Based Proteasome subunit activity/selectivity assay, β2c/2i, substrate (KQL)2Rh110; details: Ramos cells; substrate (KQL)2Rh110 (β2c/2i); highest concentration tested 20 μM
Description: as §1, §2, §3

SMILES | IC50 [1] | IC50 [2] | IC50 [3] | IC50 [4] | IC50 [5]
COc1ccc(C(=O)NCCn2cc(C(=O)NC(C#N)c3ccc(SC)cc3)nn2)c(OC)c1OC (stereo not drawn) [Example 2, 1-[2-(2,3,4-Trimethoxy-benzoylamino)-ethyl]-1H-[1,2,3]triazole-4-carboxylic acid [cyano-(4-methylsulfanyl-phenyl)-methyl]-amide] | ≥ 20 µM | ≥ 20 µM | ≥ 20 µM | 0.15 µM | ≥ 20 µM
CCc1ccc(C(C#N)NC(=O)c2cn(CCNC(=O)c3ccc(C(F)(F)F)cn3)nn2)cc1 (stereo not drawn) [Example 45, 5-Trifluoromethyl-pyridine-2-carboxylic acid [2-(4-{[cyano-(4-ethyl-phenyl)-methyl]-carbamoyl}-[1,2,3]triazol-1-yl)-ethyl]-amide] | ≥ 20 µM | ≥ 20 µM | ≥ 20 µM | 1.13 µM | ≥ 20 µM
CCc1ccc(C(C#N)NC(=O)c2cn(CCNC(=O)c3ccc(C(F)(F)F)cc3OC)nn2)cc1 (stereo not drawn) [Example 23, 1-[2-(2-Methoxy-4-trifluoromethyl-benzoylamino)-ethyl]-1H-[1,2,3]triazole-4-carboxylic acid [cyano-(4-ethyl-phenyl)-methyl]-amide] | ≥ 20 µM | 16.2 µM | ≥ 20 µM | 0.028 µM | ≥ 20 µM
COc1ccc(C(=O)NCCn2cc(C(=O)NC(C#N)c3ccc(C)cc3)nn2)c(OC)c1OC (stereo not drawn) [Example 62, 1-[2-(2,3,4-Trimethoxy-benzoylamino)-ethyl]-1H-[1,2,3]triazole-4-carboxylic acid (cyano-p-tolyl-methyl)-amide] | ≥ 20 µM | ≥ 20 µM | ≥ 20 µM | 0.404 µM | ≥ 20 µM
CCc1ccc(C(C#N)NC(=O)c2cn(CCN3Cc4cc(OC)ccc4C3=O)nn2)cc1 (stereo not drawn) [Example 47, 1-[2-(5-Methoxy-1-oxo-1,3-dihydro-isoindol-2-yl)-ethyl]-1H-[1,2,3]triazole-4-carboxylic acid [cyano-(4-ethyl-phenyl)-methyl]-amide] | ≥ 20 µM | 7.67 µM | ≥ 20 µM | 1.49 µM | ≥ 20 µM
COc1ccc(C(=O)NCCn2cc(C(=O)NC(C#N)c3ccc(Cl)cc3)nn2)c(OC)c1OC (stereo not drawn) [Example 68, 1-[2-(2,3,4-Trimethoxy-benzoylamino)-ethyl]-1H-[1,2,3]triazole-4-carboxylic acid [(4-chloro-phenyl)-cyano-methyl]-amide] | ≥ 20 µM | 16.8 µM | ≥ 20 µM | 0.327 µM | ≥ 20 µM

More lines, now with the values ahead:

IC50 [1] | IC50 [2] | IC50 [3] | IC50 [4] | IC50 [5] | SMILES
≥ 20 µM | ≥ 20 µM | ≥ 20 µM | 0.239 µM | ≥ 20 µM | CCc1ccc(C(C#N)NC(=O)c2cn(CCCNC(=O)c3ccc(C(F)(F)F)cc3OC)nn2)cc1 (stereo not drawn) [Example 85, 1-[3-(2-Methoxy-4-trifluoromethyl-benzoylamino)-propyl]-1H-[1,2,3]triazole-4-carboxylic acid [cyano-(4-ethyl-phenyl)-methyl]-amide]
≥ 20 µM | ≥ 20 µM | ≥ 20 µM | 0.072 µM | ≥ 20 µM | CCc1ccc(C(C#N)NC(=O)c2cn(CCNC(=O)C3=C(C)c4ccccc4C3)nn2)cc1 (stereo not drawn) [Example 25, 1-{2-[(3-Methyl-1H-indene-2-carbonyl)-amino]-ethyl}-1H-[1,2,3]triazole-4-carboxylic acid [cyano-(4-ethyl-phenyl)-methyl]-amide]
≥ 20 µM | 8.3 µM | 19.1 µM | 5.68 µM | ≥ 20 µM | COc1ccc(C(=O)NCCn2cc(C(=O)NC(C#N)c3ccc(OCc4ccccc4)cc3)nn2)c(OC)c1OC (stereo not drawn) [Example 56, 1-[2-(2,3,4-Trimethoxy-benzoylamino)-ethyl]-1H-[1,2,3]triazole-4-carboxylic acid [(4-benzyloxy-phenyl)-cyano-methyl]-amide]
